Assay results reported in the supplement of paper PMC10627819.

Tests used:
Test in all cases: Bliss interaction score (quartile over a dose matrix) (fitness difference); higher = more antagonism (negative = synergy)
S. pneumoniae D39V = test system: S. pneumoniae D39V
Outline: (§1)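 Fitness here means normalised growth, inferred for single drugs from the combination data. Growth was OD595 at entry into stationary phase, divided by the plate's robust no-drug mean and capped at 1. The Bliss score is observed minus expected fitness, with the expectation being the product, and its quartiles span technical, biological and donor/recipient replicates.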

B. subtilis 168 = test system: B. subtilis 168
Outline: as §1

S. aureus DSM 20231 = test system: S. aureus DSM 20231
Outline: as §1

S. aureus Newman = test system: S. aureus Newman
Outline: as §1
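Further: first quartile when negative (synergy) and third quartile when positive (antagonism).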

Row | Structure (SMILES) | Bliss interaction score (S. pneumoniae D39V) | Bliss interaction score (B. subtilis 168) | Bliss interaction score (S. aureus DSM 20231) | Bliss interaction score (S. aureus Newman) | Bliss interaction score (S. pneumoniae D39V; main component drawn) | Bliss interaction score (B. subtilis 168; main component drawn) | Bliss interaction score (S. aureus DSM 20231; main component drawn) | Bliss interaction score (S. aureus Newman; main component drawn)
1 | CC[C@H]1OC(=O)[C@H](C)[C@@H](O[C@H]2C[C@@](C)(OC)[C@@H](O)[C@H](C)O2)[C@H](C)[C@@H](O[C@@H]2O[C@H](C)C[C@H](N(C)C)[C@H]2O)[C@](C)(O)C[C@@H](C)CN(C)[C@H](C)[C@@H](O)[C@]1(C)O [Azithromycin] + CC[C@H]1OC(=O)[C@H](C)[C@@H](O[C@H]2C[C@@](C)(OC)[C@@H](O)[C@H](C)O2)[C@H](C)[C@@H](O[C@@H]2O[C@H](C)C[C@H](N(C)C)[C@H]2O)[C@](C)(O)C[C@@H](C)C(=O)[C@H](C)[C@@H](O)[C@]1(C)O [Erythromycin] | 0.0539 | -0.0754 | -0.056 | -0.0668 | – | – | – | –
2 | CC[C@H]1OC(=O)[C@H](C)[C@@H](O[C@H]2C[C@@](C)(OC)[C@@H](O)[C@H](C)O2)[C@H](C)[C@@H](O[C@@H]2O[C@H](C)C[C@H](N(C)C)[C@H]2O)[C@](C)(O)C[C@@H](C)CN(C)[C@H](C)[C@@H](O)[C@]1(C)O [Azithromycin] + CC[C@H]1OC(=O)[C@H](C)[C@@H](O[C@H]2C[C@@](C)(OC)[C@@H](O)[C@H](C)O2)[C@H](C)[C@@H](O[C@@H]2O[C@H](C)C[C@H](N(C)C)[C@H]2O)[C@](C)(OC)C[C@@H](C)C(=O)[C@H](C)[C@@H](O)[C@]1(C)O [Clarithromycin] | -0.0473 | -0.0578 | -0.107 | -0.0536 | – | – | – | –
3 | CC[C@H]1OC(=O)[C@H](C)[C@@H](O[C@H]2C[C@@](C)(OC)[C@@H](O)[C@H](C)O2)[C@H](C)[C@@H](O[C@@H]2O[C@H](C)C[C@H](N(C)C)[C@H]2O)[C@](C)(O)C[C@@H](C)CN(C)[C@H](C)[C@@H](O)[C@]1(C)O [Azithromycin] + CN(C)[C@@H]1C(O)=C(C(N)=O)C(=O)[C@@]2(O)C(O)=C3C(=O)c4c(O)ccc(Cl)c4[C@@](C)(O)[C@H]3C[C@@H]12 [Clortetracycline] | -0.084 | -0.344 | -0.243 | -0.192 | – | – | – | –
4 | CC[C@H]1OC(=O)[C@H](C)[C@@H](O[C@H]2C[C@@](C)(OC)[C@@H](O)[C@H](C)O2)[C@H](C)[C@@H](O[C@@H]2O[C@H](C)C[C@H](N(C)C)[C@H]2O)[C@](C)(O)C[C@@H](C)CN(C)[C@H](C)[C@@H](O)[C@]1(C)O [Azithromycin] + CN[C@H](CC(C)C)C(=O)N[C@H]1C(=O)N[C@@H](CC(N)=O)C(=O)N[C@H]2C(=O)N[C@H]3C(=O)N[C@H](C(=O)N[C@H](C(=O)O)c4cc(O)cc(O)c4-c4cc3ccc4O)[C@H](O[C@H]3C[C@](C)(N)[C@@H](O)[C@H](C)O3)c3ccc(c(Cl)c3)Oc3cc2cc(c3O[C@@H]2O[C@H](CO)[C@@H](O)[C@H](O)[C@H]2O[C@H]2C[C@](C)(NCc3ccc(-c4ccc(Cl)cc4)cc3)[C@@H](O)[C@H](C)O2)Oc2ccc(cc2Cl)[C@H]1O [Oritavancin] | 0.0492 | 0.0325 | -0.0405 | -0.0766 | – | – | – | –
5 | CC[C@H]1OC(=O)[C@H](C)[C@@H](O[C@H]2C[C@@](C)(OC)[C@@H](O)[C@H](C)O2)[C@H](C)[C@@H](O[C@@H]2O[C@H](C)C[C@H](N(C)C)[C@H]2O)[C@](C)(O)C[C@@H](C)CN(C)[C@H](C)[C@@H](O)[C@]1(C)O [Azithromycin] + CO[C@@]12[C@H](COC(N)=O)C3=C(C(=O)C(C)=C(N)C3=O)N1C[C@@H]1N[C@@H]12 [MitomycinC] | -0.0779 | 0.116 | -0.0652 | 0.0499 | – | – | – | –
6 | CC[C@H]1OC(=O)[C@H](C)[C@@H](O[C@H]2C[C@@](C)(OC)[C@@H](O)[C@H](C)O2)[C@H](C)[C@@H](O[C@@H]2O[C@H](C)C[C@H](N(C)C)[C@H]2O)[C@](C)(O)C[C@@H](C)CN(C)[C@H](C)[C@@H](O)[C@]1(C)O [Azithromycin] + CO[C@H]1/C=C/O[C@@]2(C)Oc3c(C)c(O)c4c(O)c(c(/C=N/N5CCN(C)CC5)c(O)c4c3C2=O)NC(=O)/C(C)=C\C=C\[C@H](C)[C@H](O)[C@@H](C)[C@@H](O)[C@@H](C)[C@H](OC(C)=O)[C@@H]1C [Rifampicin] | -0.0821 | 0.0851 | 0.0531 | 0.0263 | – | – | – | –
7 | CC[C@H]1OC(=O)[C@H](C)[C@@H](O[C@H]2C[C@@](C)(OC)[C@@H](O)[C@H](C)O2)[C@H](C)[C@@H](O[C@@H]2O[C@H](C)C[C@H](N(C)C)[C@H]2O)[C@](C)(O)C[C@@H](C)CN(C)[C@H](C)[C@@H](O)[C@]1(C)O [Azithromycin] + C[C@@H](O)[C@H]1C(=O)N2C(C(=O)O)=C(SCCNC=N)C[C@H]12 [Imipenem] | 0.0485 | 0.105 | -0.0324 | -0.0196 | – | – | – | –
8 | CC[C@H]1OC(=O)[C@H](C)[C@@H](O[C@H]2C[C@@](C)(OC)[C@@H](O)[C@H](C)O2)[C@H](C)[C@@H](O[C@@H]2O[C@H](C)C[C@H](N(C)C)[C@H]2O)[C@](C)(O)C[C@@H](C)CN(C)[C@H](C)[C@@H](O)[C@]1(C)O [Azithromycin] + Clc1ccc(COC(Cn2ccnc2)c2ccc(Cl)cc2Cl)c(Cl)c1 [Miconazole] | 0.0855 | 0.0679 | -0.0368 | 0.0828 | – | – | – | –
9 | CC[C@H]1OC(=O)[C@H](C)[C@@H](O[C@H]2C[C@@](C)(OC)[C@@H](O)[C@H](C)O2)[C@H](C)[C@@H](O[C@@H]2O[C@H](C)C[C@H](N(C)C)[C@H]2O)[C@](C)(O)C[C@@H](C)CN(C)[C@H](C)[C@@H](O)[C@]1(C)O [Azithromycin] + N[C@@H]1CONC1=O [CycloserineD] | 0.135 | 0.0718 | -0.103 | 0.0743 | – | – | – | –
10 | CC[C@H]1OC(=O)[C@H](C)[C@@H](O[C@H]2C[C@@](C)(OC)[C@@H](O)[C@H](C)O2)[C@H](C)[C@@H](O[C@@H]2O[C@H](C)C[C@H](N(C)C)[C@H]2O)[C@](C)(O)C[C@@H](C)CN(C)[C@H](C)[C@@H](O)[C@]1(C)O [Azithromycin] + O=C1CN(/N=C/c2ccc([N+](=O)[O-])o2)C(=O)N1 [Nitrofurantoin] | -0.215 | -0.117 | -0.0881 | -0.0835 | – | – | – | –
11 | CC[C@H]1OC(=O)[C@H](C)[C@@H](O[C@H]2C[C@@](C)(OC)[C@@H](O)[C@H](C)O2)[C@H](C)[C@@H](O[C@@H]2O[C@H](C)C[C@H](N(C)C)[C@H]2O)[C@](C)(O)C[C@@H](C)CN(C)[C@H](C)[C@@H](O)[C@]1(C)O [Azithromycin] + O=C(O)[C@H]1/C(=C/CO)O[C@@H]2CC(=O)N21 [Clavulanic] | -0.0573 | 0.115 | -0.136 | 0.239 | – | – | – | –
12 | CC[C@H]1OC(=O)[C@H](C)[C@@H](O[C@H]2C[C@@](C)(OC)[C@@H](O)[C@H](C)O2)[C@H](C)[C@@H](O[C@@H]2O[C@H](C)C[C@H](N(C)C)[C@H]2O)[C@](C)(O)C[C@@H](C)CN(C)[C@H](C)[C@@H](O)[C@]1(C)O [Azithromycin] + Oc1cc(Cl)ccc1Oc1ccc(Cl)cc1Cl [Triclosan] | -0.0322 | -0.0359 | -0.133 | -0.0316 | – | – | – | –
13 | CC1=C(C(=O)O)N2C(=O)[C@@H](NC(=O)[C@H](N)c3ccccc3)[C@H]2SC1 [Cephalexin] + CC1(C)S[C@@H]2[C@H](NC(=O)Cc3ccccc3)C(=O)N2[C@H]1C(=O)O [PenicillinG] | -0.199 | 0.0543 | -0.0449 | -0.0472 | – | – | – | –
14 | CC1=C(C(=O)O)N2C(=O)[C@@H](NC(=O)[C@H](N)c3ccccc3)[C@H]2SC1 [Cephalexin] + CC(=O)O[C@H]1C[C@@]2(C)[C@@H](C[C@@H](O)[C@H]3[C@@]4(C)CC[C@@H](O)[C@@H](C)[C@@H]4CC[C@@]32C)/C1=C(\CCC=C(C)C)C(=O)O [Fusidic acid] | 0.143 | 0.0683 | 0.0436 | 0.0547 | – | – | – | –
15 | CC1=C(C(=O)O)N2C(=O)[C@@H](NC(=O)[C@H](N)c3ccccc3)[C@H]2SC1 [Cephalexin] + CC(C1CCC(C(O1)OC2C(CC(C(C2O)OC3C(C(C(CO3)(C)O)NC)O)N)N)N)NC [Gentamicin] | – | – | – | – | -0.132 | -0.0985 | -0.0632 | -0.018
16 | CC1=C(C(=O)O)N2C(=O)[C@@H](NC(=O)[C@H](N)c3ccccc3)[C@H]2SC1 [Cephalexin] + CCC[C@@H]1C[C@@H](C(=O)N[C@@H]([C@H]2O[C@H](SC)[C@H](O)[C@@H](O)[C@H]2O)[C@H](C)Cl)N(C)C1 [Clindamycin] | 0.14 | -0.0509 | -0.0563 | 0.138 | – | – | – | –
17 | CC1=C(C(=O)O)N2C(=O)[C@@H](NC(=O)[C@H](N)c3ccccc3)[C@H]2SC1 [Cephalexin] + CC[C@H]1OC(=O)[C@H](C)C(=O)[C@H](C)[C@@H](O[C@@H]2O[C@H](C)C[C@H](N(C)C)[C@H]2O)[C@](C)(OC)C[C@@H](C)C(=O)[C@H](C)[C@H]2N(CCCCn3cnc(-c4cccnc4)c3)C(=O)O[C@]12C [Telithromycin] | 0.0359 | 0.0293 | 0.0639 | 0.0476 | – | – | – | –
